Like-named read-outs stand apart in the source and are kept apart here. Residues, ends and D or L forms follow the SMILES beside them. No end group written: not given here. *: point of attachment. Octanoyl = CCCCCCCC(=O)*

The text below walks through data of patent publication US6083917A, “Methods and compositions for the identification, characterization and inhibition of farnesyltransferase” (Board of Regents, The University of Texas System, priority 1992, dated 2000).

The target in test [1] is T1, rat brain farnesyltransferase (Rattus norvegicus, UniProt Q02293+Q04631). The experiment in a line: Farnesyltransferase assay: transfer of [3H]farnesyl from [3H]FPP to p21H-ras (TCA filter assay), competition by peptides. Type of test: biochemical. Also on record: Brains from 50 male Sprague-Dawley rats (100-150 g) were homogenized; from tissue; host or cells: rat brain (male Sprague-Dawley rats). The method, then:
Farnesyltransferase activity was determined by measuring the amount of ^3 H-farnesol transferred from all-trans ^3 H]farnesyl pyrophosphate ([^3 H]FPP) to p21^H-ras protein. The standard reaction mixture contained the following concentrations of components in a final volume of 25 μl: 50 mM Tris-chloride (pH 7.5), 50 μM ZnCl2, 20 mM KCl, 1 mM DTT, and 40 μM p21^H-ras. The mixture also contained 10 pmoles of [^3 H]FPP (~30,000 dpm/pmol) and 1.8-3.5 μg of partially purified farnesyltransferase (see below). After incubation for 1 hour at 37° C. in 12×75-mm borosilicate tubes, the reaction was stopped by addition of 0.5 ml of 4% SDS and then 0.5 ml of 30% trichloroacetic acid (TCA).
The tubes were vortexed and left on ice for 45-60 min, after which 2 ml of a 6% TCA/2% SDS solution were added. The mixture was filtered on a 2.5-cm glass fiber filter with a Hoefer filtration unit (FH 225). The tubes were rinsed twice with 2 ml of the same solution, and each filter was washed five times with 2 ml of 6% TCA, dried, and counted in a scintillation counter. One unit of activity is defined as the amount of enzyme that transfers 1 pmol of [^3 H]farnesol from [^3 H]FPP into acid-precipitable p21^H-ras per hour under the standard conditions.
The standard assay involved measuring the amount of [^3 H]farnesyl transferred from all-trans [^3 H]FPP to recombinant human p21^H-ras as described in Example I. Each reaction mixture contained the following concentrations of components in a final volume of 25 μl: 50 mM Tris-chloride (pH 7.5), 50 μM ZnCl2, 30 mM KCl, 1 mM DTT, 30 or 40 μM p21^H-ras, 15 pmol [^3 H]FPP (12-23,000 dpm/pmol), 4 to 7.5 μg of partially purified farnesyltransferase (Mono Q fraction, see Example I), and the indicated concentration of competitor peptide added in 3 μl of 10 mM DTT. […] This blank value was subtracted before calculating "% of control" values.
The amount of [^3 H]farnesyl transferred from all-trans-[^3 H]farnesyl pyrophosphate to recombinant p21^H-ras was measured in a filter assay as previously described (62).

The target of test [2] is T1, rat brain farnesyltransferase. The experiment in a line: Binding of prenyl pyrophosphates to protein farnesyltransferase (gel filtration). Also on record: Protein farnesyltransferase was purified to apparent homogeneity from rat brain homogenates; from tissue; host or cells: rat brain. To be noted: purified enzyme. The source says: Transfer of the enzyme-bound farnesyl group to the bound p21^H-ras required Mg^2+. […] It also was not transferred to a modified p21^H-ras containing COOH-terminal leucine, a protein that was shown previously to be a good substrate for a rat brain geranylgeranyltransferase (35). The inventors conclude that the protein farnesyltransferase is a metalloenzyme that most likely contains Zn^2+ at the peptide-binding site. It thus resembles certain metallopeptidases, including carboxy-peptidase A and the angiotensin-converting enzyme. Strategies previously developed to screen for inhibitors of those enzymes will likely aid in the search for inhibitors of the protein farnesyltransferase.
On the technique in general: Size exclusion chromatography separates by hydrodynamic size, large species first.

Test [3] has the same target. Nature of the test: Farnesyltransferase assay: transfer of [3H]farnesyl from [3H]FPP to p21H-ras (TCA filter assay), competition by peptides. It counts as biochemical. The note with it: Concentration giving 50% inhibition of farnesylation of p21H-ras, FIG. 23A; Mono Q fraction, 0.5 μM [3H]farnesyl pyrophosphate, 30 min at 37° C. The arrangement: Brains from 50 male Sprague-Dawley rats (100-150 g) were homogenized; from tissue; host or cells: rat brain (male Sprague-Dawley rats).

The mark [4] stands for this setting: Concentration giving 50% inhibition of farnesyltransferase (text, FIG. 14 / Table II), Example II, partially purified rat brain enzyme, p21H-ras acceptor.
Setting [5] is: Table II, partially purified rat farnesyltransferase, p21H-ras acceptor, seven concentrations 0.03 to 100 μM, read-out: Concentration for 50% Inhibition.
[6] abbreviates: Table III, six concentrations 0.03 to 10 μM, read-out: Concentration for 50% Inhibition of Farnesylation of p21H-ras.

T1 sequence (Q02293 whole entry, one chain of several): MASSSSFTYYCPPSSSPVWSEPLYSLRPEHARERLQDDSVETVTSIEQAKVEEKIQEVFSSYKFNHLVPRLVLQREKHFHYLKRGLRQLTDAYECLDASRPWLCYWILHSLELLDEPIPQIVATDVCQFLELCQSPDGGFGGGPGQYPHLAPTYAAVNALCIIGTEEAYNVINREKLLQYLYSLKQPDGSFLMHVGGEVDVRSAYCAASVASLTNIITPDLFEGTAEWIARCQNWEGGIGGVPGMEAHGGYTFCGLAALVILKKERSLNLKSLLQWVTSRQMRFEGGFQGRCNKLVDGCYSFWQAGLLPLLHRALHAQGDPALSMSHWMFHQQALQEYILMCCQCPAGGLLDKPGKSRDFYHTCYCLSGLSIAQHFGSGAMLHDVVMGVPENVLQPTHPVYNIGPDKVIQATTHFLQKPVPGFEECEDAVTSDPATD

Regarding `CC[C@H](C)[C@H](NC(=O)[C@H](C)NC(=O)[C@@H](N)CS)C(=O)N[C@@H](CCSC)C(=O)O` [CAIM] (H-CAIM-OH), the IC50 in test [1] (setting [4]) and in test [1] (setting [5]) was 150 nM in each case.
`CSCC[C@H](NC(=O)[C@H](Cc1ccccc1)NC(=O)[C@@H](NC(=O)[C@H](CS)NC(=O)[C@@H](N)CS)C(C)C)C(=O)O` [CCVFM] (H-CCVFM-OH): the IC50 in test [1] (setting [6]) is 440 nM.
Take `CC[C@H](C)[C@H](NC(=O)[C@@H](NC(=O)[C@@H](N)CS)[C@@H](C)CC)C(=O)N[C@@H](CCSC)C(=O)O` [CIIM] (H-CIIM-OH): the IC50 in test [1] (setting [5]) turned out to be 150 nM.
Still for that read-out and setting: the same measure for `CC[C@H](C)[C@H](NC(=O)[C@H](CO)NC(=O)[C@@H](N)CS)C(=O)N[C@@H](CCSC)C(=O)O` [CSIM] (H-CSIM-OH): 200 nM.
For `CC[C@H](C)[C@H](NC(=O)[C@@H](NC(=O)[C@@H](N)CS)C(C)C)C(=O)N[C@@H](CCSC)C(=O)O` [CVIM] (H-CVIM-OH), the IC50 in test [1] (setting [4]), in test [1] (setting [5]) and in test [1] (setting [6]) was 150 nM in each case.
On to `CSCC[C@H](NC(=O)[C@@H](NC(=O)[C@@H](NC(=O)[C@@H](N)CS)C(C)C)C(C)C)C(=O)O` [CVVM] (H-CVVM-OH), for which the IC50 in test [1] (setting [5]) came out at 150 nM.
In the case of `CSCC[C@H](NC(=O)[C@H](Cc1c[nH]c2ccccc12)NC(=O)[C@@H](NC(=O)[C@@H](N)CS)C(C)C)C(=O)O` [CVWM] (H-CVWM-OH), the IC50 in test [1] (setting [6]) came out at 320 nM.
Consider `CC(C)=CCC/C(C)=C/CC/C(C)=C/CC/C(C)=C/COP(=O)(O)OP(=O)(O)O` [Geranylgeranyl pyrophosphate], for which the “Affinity for the prenyl pyrophosphate binding site” value in test [2] is on record as “affinity equal to that of farnesyl pyrophosphate”.
For `CSCC[C@H](NC(=O)[C@H](Cc1ccccc1)NC(=O)[C@@H](NC(=O)[C@H](CS)NC(=O)[C@H](CS)NC(C)=O)C(C)C)C(=O)O` [N-AcCCVFM] (Ac-CCVFM-OH), the IC50 in test [1] (setting [6]) was 110 nM.
On to `CSCC[C@H](NC(=O)[C@H](Cc1ccccc1)NC(=O)[C@@H](NC(=O)[C@H](CS)NC(C)=O)C(C)C)C(=O)O` [N-AcCVFM] (Ac-CVFM-OH), for which the IC50 worked out at 250 nM in test [1] (setting [6]) and 270 nM in test [3].
Take `CC[C@H](C)[C@H](NC(=O)[C@@H](NC(=O)[C@H](CS)NC(C)=O)C(C)C)C(=O)N[C@@H](CCSC)C(=O)O` [N-AcCVIM] (Ac-CVIM-OH): the IC50 in test [1] (setting [6]) stood at 150 nM.
Take `CSCC[C@H](NC(=O)[C@H](Cc1c[nH]c2ccccc12)NC(=O)[C@@H](NC(=O)[C@H](CS)NC(C)=O)C(C)C)C(=O)O` [N-AcCVWM] (Ac-CVWM-OH): in test [1] (setting [6]), the IC50 was 3700 nM.
Same read-out and setting: the value for `CCCCCCCC(=O)N[C@@H](CS)C(=O)N[C@H](C(=O)N[C@@H](Cc1ccccc1)C(=O)N[C@@H](CCSC)C(=O)O)C(C)C` [N-Octanoyl-CVFM] (Octanoyl-CVFM-OH) was 350 nM.
Take `CC(C)=CCC/C(C)=C/CC/C(C)=C/COP(=O)(O)OP(=O)(O)O` [[^3 H]farnesyl pyrophosphate, farnesyl pyrophosphate, reference compound]: the “Concentration that gave half-maximal reaction velocity” value in test [1] (substrate saturation, FIG. 2A and 2B) is recorded as “approximately 0.5 μM”.
With Ac-DCVFM [N-AcDCVFM], in test [1] (setting [6]), the IC50 was 1900 nM.
For the molecule Ac-ECVFM [N-AcECVFM], in test [1] (setting [6]), the IC50 amounted to 2400 nM.
Still for that read-out and setting: the value for Ac-GCVFM [N-AcGCVFM] was 430 nM; that for Ac-HCVFM [N-AcHCVFM] was 240 nM.
Turning to Ac-KCVFM [N-AcKCVFM], the IC50 in test [1] (setting [6]) was determined as 300 nM.
As to Ac-MCVFM [N-AcMCVFM], the IC50 in test [1] (setting [6]) is 1400 nM.
On the same count and under the same terms, the value for Ac-PCVFM [N-AcPCVFM] was 200 nM; that for Ac-SCVFM [N-AcSCVFM] was 230 nM.
The same measure, in the same setting: the same measure for KCVFM [KCVFM]: 1100 nM.
